# Measurements taken from patent US20240285634A1, “COMPOUND AND METHOD FOR TREATING CHEMOTHERAPY-ASSOCIATED GASTROINTESTINAL SIDE EFFECTS” (ONQUALITY PHARMACEUTICALS CHINA LTD., priority 2021, published 2024).
# Structures can show the parent of a compound that is named as a salt.
# Key:
# [1] = tested on: Chemotherapeutic agent-caused diarrhea models of Balb/c mice; assay: Relieving effect on diarrhea caused by a chemotherapeutic agent (Examples 1-201); assay type: in vivo; conditions: for diarrhea gradings compared with the chemotherapeutic agent group: administered before the chemotherapeutic agent, Table 3 and FIG. 2
# Text: Construction of mouse animal models: Chemotherapeutic agent-caused diarrhea models of Balb/c mice were constructed according to the administration mode and frequency of the chemotherapeutic agent as shown in Table 3. After administration for several days, mice developed different extents of diarrhea symptoms (as shown in FIG. 1), which were similar to the conditions in human. Thus, chemotherapeutic agent-caused diarrhea models of mice are very good models to mimic diarrhea in human caused by the chemotherapeutic agent.
# Balb/c mice were fed for 1 week, and then divided into groups. The experiment was divided into a control group, a chemotherapeutic agent group, and a group of the compound as shown in Formula I, each of which comprised 10 mice, to perform the administration experiment, for which the administration dosage, mode, time and frequency were shown in Table 3. The control group: being injected or intragastrically administered with the same solvent as that used in the group of the compound as shown in Formula I (the injection mode and time were shown in Table 3), and then being injected or intragastrically administered with the same solvent as that used in the chemotherapeutic agent group (the administration mode was shown in Table 3); the chemotherapeutic agent group: being injected or intragastrically administered with the same solvent as that used in the group of the compound as shown in Formula I (the administration mode and time were shown in Table 3), and then being injected or intragastrically administered with the chemotherapeutic agent (the type, administration mode and dosage were shown in Table 3); the group of the compound as shown in Formula I: being injected or intragastrically administered with the compound as shown in Formula I (the administration mode and time were shown in Table 3), and then being administered with the chemotherapeutic agent (the administration mode and dosage were shown in Table 3).
# The scoring of diarrhea can refer to the method of Akinobu Kurita (Cancer Chemother Pharmacol 2000; 46:211-20.), Grade 0: normal feces; Grade 1: mild diarrhea, the stools is slightly wet and soft; Grade 2: moderate diarrhea, loose stools and mild perianal contamination; Grade 3: severe diarrhea, watery stools and accompanied by severe perianal staining (see FIG. 1). It is regarded as effective remission when the diarrhea grading of mice in the group of the compound as shown in Formula I is reduced compared with the average diarrhea grading of mice in the chemotherapeutic agent group.
# The diarrhea grading of mice was observed and recorded every day. At the end of the experiment, the number of mice in the group of the compound as shown in Formula I whose diarrhea grading was lower than that of mice in the chemotherapeutic agent group was recorded. Table 3 lists various animal experiment combinations of chemotherapeutic agents and the compound as shown in Formula I, as well as the corresponding experimental results. (Relative remission rate %=the number of mice in the group of the compound as shown in Formula I whose diarrhea has been effectively relieved/the total number of mice in the group of the compound as shown in Formula I*100%. The establishment rate of diarrhea model in the chemotherapeutic agent group was 50%-70%, that is, about 5-7 of 10 mice developed diarrhea during the experiment, and there were cases of individual mice death or not developing diarrhea.)
# [2] = tested on: Balb/c mice, constipation caused by continuous administration of a chemotherapeutic agent; assay: Relieving effect on constipation caused by the continuous administration of a chemotherapeutic agent (Examples 385-405); assay type: in vivo; conditions: for Relative remission rate (%): Fluorouracil (5-Fu) 100 mg/kg intraperitoneal injection once a day for 3 days, experimental cycle 7 days
# Text: Balb/c mice were fed for 1 week, and then divided into groups. The experiment was divided into a control group, a chemotherapeutic agent group, and a group of the compound as shown in Formula I, each of which comprised 10 mice, to perform the administration experiment, for which the administration dosage, mode, time and frequency were shown in Table 6. The control group: being injected or intragastrically administered with the same solvent as that used in the group of the compound as shown in Formula I (the administration mode and time were shown in Table 6), and then being injected or intragastrically administered with the same solvent as that used in the group of the compound as shown in Formula I (the administration mode was shown in Table 6); the chemotherapeutic agent group: being injected or intragastrically administered with the same solvent as that used in the group of the compound as shown in Formula I (the administration mode and time were shown in Table 6), and then being injected or intragastrically administered with the chemotherapeutic agent (the type, administration mode, time and dosage were shown in Table 6); the group of the compound as shown in Formula I: being injected or intragastrically administered with the compound as shown in Formula I (the administration mode and time were shown in Table 6), and then being administered with the chemotherapeutic agent (the type, administration mode, time and dosage were shown in Table 6).
# The feces reduction rate was calculated with reference to the method of Ji Eun Kim (Lab Anim Res. 2016 December; 32(4): 231-240.). Feces reduction rate (%)=(the control group−the chemotherapeutic agent group or the group of the compound as shown in Formula I)/the control group*100%
# It is regarded as effective remission when the feces reduction rate of mice in the group of the compound as shown in Formula I is reduced compared with that in the chemotherapeutic agent group.
# The feces amount of mice within 3 hours was observed and recorded every day. At the end of the experiment, the number of mice in the group of the compound as shown in Formula I whose feces reduction rate was lower than that of mice in the chemotherapeutic agent group was recorded. Table 6 lists various animal experiment combinations of chemotherapeutic agents and the compound as shown in Formula I, as well as the corresponding experimental results.
# [3] = continuous administration of fluorouracil for less than 7 days
# [4] = continuous administration of the chemotherapeutic agent for 7 days or less
structure (smiles),measurement,setting,value
O=C1NCC2(CCCCC2)n2c1cc1cnc(Nc3ccc(N4CCC(N5CCOCC5)CC4)cn3)nc12 [Compound III],Relative remission rate,"[1]; Ex 89, Oxaliplatin 17.5 mg/kg intravenous single, compound 100 mg/kg intraperitoneal single 1 h before, cycle 8 days",40%
same,Relative remission rate,"[1]; Ex 90, Oxaliplatin 17.5 mg/kg intravenous single, compound 100 mg/kg intraperitoneal single 4 h before, cycle 8 days",70%
same,Relative remission rate,"[1]; Ex 91, Oxaliplatin 17.5 mg/kg intravenous single, compound 100 mg/kg intraperitoneal single 8 h before, cycle 8 days",40%
same,Relative remission rate,"[1]; Ex 178, Fluorouracil 50 + oxaliplatin 5 + irinotecan 50 + tetrahydrofolic acid 90 mg/kg intravenous single, compound 150 mg/kg oral single 0.5 h before, cycle 7 days",30%
same,Relative remission rate,"[1]; Ex 179, Fluorouracil 50 + oxaliplatin 5 + irinotecan 50 + tetrahydrofolic acid 90 mg/kg intravenous single, compound 150 mg/kg oral single 4 h before, cycle 7 days",50%
same,Relative remission rate,"[1]; Ex 180, Fluorouracil 50 + oxaliplatin 5 + irinotecan 50 + tetrahydrofolic acid 90 mg/kg intravenous single, compound 150 mg/kg oral single 8 h before, cycle 7 days",40%
same,Relative remission rate,"[1]; Ex 181, Fluorouracil 50 + oxaliplatin 5 + irinotecan 50 + tetrahydrofolic acid 90 mg/kg intravenous single, compound 150 mg/kg oral single 12 h before, cycle 7 days",40%
same,Relative remission rate,"[1]; Ex 182, Fluorouracil 50 + oxaliplatin 5 + irinotecan 50 + tetrahydrofolic acid 90 mg/kg intravenous single, compound 150 mg/kg oral single 24 h before, cycle 7 days",20%
same,Relative remission rate,"[1]; Ex 199, Etoposide 60 + carboplatin 5 mg/kg intraperitoneal single, compound 100 mg/kg oral single 0.5 h before, cycle 10 days",60%
same,diarrhea gradings compared with the chemotherapeutic agent group,[1],relieved to different degrees
same,Relative remission rate (%),"[2]; Example 398, compound 100 mg/kg intravenous injection once a day for 3 days, 2 h before the chemotherapeutic agent",40%
same,relieving effects on constipation,[2]; [3],significant relieving effects
same,relieving effects on constipation,[2]; [4],have relieving effects
O=C1NCC2(CCCCC2)n2c1cc1cnc(Nc3ccc(N4CCNCC4)cn3)nc12 [Compound II],Relative remission rate,"[1]; Ex 31, 5-Fu 125 mg/kg intraperitoneal single, compound 50 mg/kg intraperitoneal single 0.5 h before, cycle 10 days",30%
same,Relative remission rate,"[1]; Ex 32, 5-Fu 125 mg/kg intraperitoneal single, compound 100 mg/kg intraperitoneal single 4 h before, cycle 10 days",60%
same,Relative remission rate,"[1]; Ex 33, 5-Fu 125 mg/kg intraperitoneal single, compound 150 mg/kg intraperitoneal single 12 h before, cycle 10 days",40%
same,Relative remission rate,"[1]; Ex 173, Fluorouracil 50 + oxaliplatin 5 + irinotecan 50 + tetrahydrofolic acid 90 mg/kg intraperitoneal single, compound 100 mg/kg oral single 0.5 h before, cycle 7 days",30%
same,Relative remission rate,"[1]; Ex 174, Fluorouracil 50 + oxaliplatin 5 + irinotecan 50 + tetrahydrofolic acid 90 mg/kg intraperitoneal single, compound 100 mg/kg oral single 4 h before, cycle 7 days",30%
same,Relative remission rate,"[1]; Ex 175, Fluorouracil 50 + oxaliplatin 5 + irinotecan 50 + tetrahydrofolic acid 90 mg/kg intraperitoneal single, compound 100 mg/kg oral single 8 h before, cycle 7 days",40%
same,Relative remission rate,"[1]; Ex 176, Fluorouracil 50 + oxaliplatin 5 + irinotecan 50 + tetrahydrofolic acid 90 mg/kg intraperitoneal single, compound 100 mg/kg oral single 12 h before, cycle 7 days",30%
same,Relative remission rate,"[1]; Ex 177, Fluorouracil 50 + oxaliplatin 5 + irinotecan 50 + tetrahydrofolic acid 90 mg/kg intraperitoneal single, compound 100 mg/kg oral single 24 h before, cycle 7 days",30%
same,Relative remission rate,"[1]; Ex 197, Gemcitabine (GEM) 120 mg/kg intravenous single, compound 100 mg/kg oral single 24 h before, cycle 8 days",40%
same,Relative remission rate,"[1]; Ex 198, Etoposide 60 + carboplatin 5 mg/kg intraperitoneal single, compound 100 mg/kg oral single 2 h before, cycle 10 days",50%
same,diarrhea gradings compared with the chemotherapeutic agent group,[1],relieved to different degrees
same,Relative remission rate (%),"[2]; Example 397, compound 100 mg/kg intraperitoneal injection once a day for 3 days, 0.5 h before the chemotherapeutic agent",20%
same,relieving effects on constipation,[2]; [3],significant relieving effects
same,relieving effects on constipation,[2]; [4],have relieving effects
"CC(C)N1CCN(c2ccc(Nc3ncc4cc5n(c4n3)C3(CCCCC3)CNC5=O)nc2)CC1 [Compound IV hydrochloride, Lerociclibdihydrochloride]",Relative remission rate,"[1]; Ex 115, Irinotecan (CPT-11) 240 mg/kg intraperitoneal single, compound 100 mg/kg intraperitoneal single 0.5 h before, cycle 11 days",40%
same,Relative remission rate,"[1]; Ex 116, Irinotecan (CPT-11) 240 mg/kg intraperitoneal single, compound 100 mg/kg intraperitoneal single 4 h before, cycle 11 days",60%
same,Relative remission rate,"[1]; Ex 117, Irinotecan (CPT-11) 240 mg/kg intraperitoneal single, compound 100 mg/kg intraperitoneal single 12 h before, cycle 11 days",20%
same,Relative remission rate,"[1]; Ex 188, Fluorouracil 50 + oxaliplatin 5 + irinotecan 50 + tetrahydrofolic acid 90 mg/kg intravenous single, compound 100 mg/kg intraperitoneal single 0.5 h before, cycle 7 days",70%
same,Relative remission rate,"[1]; Ex 189, Fluorouracil 50 + oxaliplatin 5 + irinotecan 50 + tetrahydrofolic acid 90 mg/kg intravenous single, compound 100 mg/kg intraperitoneal single 12 h before, cycle 7 days",50%
same,Relative remission rate,"[1]; Ex 201, Gemcitabine 120 + carboplatin 5 mg/kg intravenous single, compound 100 mg/kg oral single 24 h before, cycle 8 days",40%
same,Relative remission rate (%),"[2]; Example 400, compound intraperitoneal injection, 2 h before the chemotherapeutic agent, dosage cell prints 'Once a day, for 3 days', frequency cell 'Single'",50%
same,Relative remission rate (%),"[2]; Example 401, compound intraperitoneal injection, 12 h before the chemotherapeutic agent, dosage cell prints 'Once a day, for 3 days', frequency cell 'Single'",30%
